Source: US7012089B2, “[1,4]Diazocino[7,8,1-hi]indole derivatives as antipsychotic and antiobesity agents” (Wyeth, priority 2002, dated 2006)
Structures can show the parent of a compound that is named as a salt. Where two headings read alike, the source gives them in different places.

Tests used:
[1] = target: T1, human 5-hydroxytryptamine-2C (h-5-HT2C) receptor (Homo sapiens, UniProt P28335); assay: [125I]DOI binding to membranes of CHO cells expressing the h-5-HT2C receptor; conditions: 5-HT2c Affinity KI (nM), displacement of [125I]DOI, CHO cell membranes
T1 sequence (P28335 33-458): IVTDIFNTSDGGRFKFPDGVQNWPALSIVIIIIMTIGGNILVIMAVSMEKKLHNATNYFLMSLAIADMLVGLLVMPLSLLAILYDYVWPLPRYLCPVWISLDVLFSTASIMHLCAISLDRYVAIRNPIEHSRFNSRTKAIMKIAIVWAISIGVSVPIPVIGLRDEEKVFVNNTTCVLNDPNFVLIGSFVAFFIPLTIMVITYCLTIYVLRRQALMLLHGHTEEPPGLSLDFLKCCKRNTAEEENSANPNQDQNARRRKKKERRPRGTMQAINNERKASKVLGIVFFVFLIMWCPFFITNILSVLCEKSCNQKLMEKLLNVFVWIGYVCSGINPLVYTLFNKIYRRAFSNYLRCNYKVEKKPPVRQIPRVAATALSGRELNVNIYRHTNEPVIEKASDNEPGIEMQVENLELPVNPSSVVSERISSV

human 5-HT2C receptor = target: T2, human 5-HT2C receptor (Homo sapiens, UniProt P28335); assay: 5-HT2C receptor-stimulated calcium mobilization (FLIPR) in CHO cells; format: cell-based; conditions: for Emax: CHO, read-out: 5-HT2C Function Emax (%)
T2 sequence (P28335 33-458): T1 sequence (P28335 33-458)

[2] = calcium mobilization, CHO cells stably expressing human 5-HT2C, read-out: 5-HT2C Function EC50

SMILES | melting point | Ki [1] | Emax (human 5-HT2C receptor) | EC50 (human 5-HT2C receptor; [2]) | EC50 (human 5-HT2C receptor)
c1cc2c3c(c1)c1c(n3CCNCC2)CCC1 (as salt: fumarate) [Example 2, 2,3,4,5,10,11-Hexahydro-1H,9H-cyclopenta[b][1,4]diazocino[7,8,1-hi]indole] | 180 to 183 °C |  |  |  | 
Clc1ccc2c3c1CCNCCN3C1CCCCCC21 (stereo not shown) [Example 22, 6-Chloro-2,3,4,5,9,10,11,12,13,13a-decahydro-1H,8bH-cyclohepta[b][1,4]diazocino[7,8,1-hi]indole] |  | 50 nM | 60% | 326 nM | 
CN1CCc2ccc(F)c3c2N(CC1)C1CCCCC31 (stereo not shown) [Example 27, 8-Fluoro-3-methyl-2,3,4,5,8b,9,10,11,12,12a-decahydro-1H-[1,4]diazocino[7,8,1-jk]carbazole] |  | 13 nM | 70% | 261 nM | 
Fc1ccc2c3c1c1c(n3CCNCC2)CCC1 [Example 28, 8-Fluoro-2,3,4,5,10,11-hexahydro-1H,9H-cyclopenta[b][1,4]diazocino[7,8,1-hi]indole] |  | 12 nM | 80% |  | 36 nM
Fc1ccc2c3c1c1c(n3CCNCC2)CCCC1 [Example 29, 8-Fluoro-2,3,4,5,9,10,11,12-octahydro-1H-[1,4]diazocino[7,8,1-jk]carbazole] |  | 1 nM | 90% |  | 8 nM
Fc1ccc2c3c1C1CCCC1N3CCNCC2 (stereo not shown) [Example 30, 8-Fluoro-2,3,4,5,9,10,11,11a-octahydro-1H,8bH-cyclopenta[b][1,4]diazocino[7,8,1-hi]indole] |  | 16 nM | 90% |  | 36 nM
Fc1ccc2c3c1C1CCCCC1N3CCNCC2 (stereo not shown) [Example 31, 8-Fluoro-2,3,4,5,8b,9,10,11,12,12a-decahydro-1H[1,4]diazocino[7,8,1-jk]carbazole] |  | 8 nM | 60% |  | 87 nM
CN1CCc2ccc(Cl)c3c4c(n(c23)CC1)CCC4 [Example 34, 8-Chloro-3-methyl-2,3,4,5,10,11-hexahydro-1H,9H-cyclopenta[b][1,4]diazocino[7,8,1-hi]indole] |  | 15 nM | 40% |  | 81 nM
CN1CCc2ccc(Cl)c3c4c(n(c23)CC1)CCCC4 [Example 35, 8-Chloro-3-methyl-2,3,4,5,9,10,11,12-octahydro-1H-[1,4]diazocino[7,8,1-jk]carbazole] |  | 11 nM | 50% | 287 nM | 
CN1CCc2ccc(Cl)c3c2N(CC1)C1CCCC31 (stereo not shown) [Example 36, 8-Chloro-3-methyl-2,3,4,5,9,10,11,11a-octahydro-1H,8bH-cyclopenta[b][1,4]diazocino[7,8,1-hi]indole] |  | 12 nM | 40% | 467 nM | 
CN1CCc2ccc(Cl)c3c2N(CC1)C1CCCCC31 (stereo not shown) [Example 37, 8-Chloro-3-methyl-2,3,4,5,8b,9,10,11,12,12a-decahydro-1H-[1,4]diazocino[7,8,1-jk]carbazole] |  | 11.6 nM | 70% | 655 nM | 
Clc1ccc2c3c1c1c(n3CCNCC2)CCC1 [Example 38, 8-Chloro-2,3,4,5,10,11-hexahydro-1H,9H-cyclopenta[b][1,4]diazocino[7,8,1-hi]indole] |  | 9.3 nM | 90% |  | 87 nM
Clc1ccc2c3c1c1c(n3CCNCC2)CCCC1 [Example 39, 8-Chloro-2,3,4,5,9,10,11,12-octahydro-1H-[1,4]diazocino[7,8,1-jk]carbazole] |  | 2 nM | 80% |  | 48 nM
Clc1ccc2c3c1C1CCCC1N3CCNCC2 (stereo not shown) [Example 40, 8-Chloro-2,3,4,5,9,10,11,11a-octahydro-1H,8bH-cyclopenta[b][1,4]diazocino[7,8,1-hi]indole] |  | 20 nM | 80% |  | 81 nM
Clc1ccc2c3c1C1CCCCC1N3CCNCC2 (stereo not shown) [Example 41, 8-Chloro-2,3,4,5,8b,9,10,11,12,12a-decahydro-1H-[1,4]diazocino[7,8,1-jk]carbazole] |  | 7.5 nM | 90% |  | 91 nM
